# Measured values taken from patent US20160214958A1, “COMPOUNDS AND USE FOR TREATING CANCER” (GLIONOVA AB, priority 2013, published 2016).
# Like-named read-outs stand apart in the source and are kept apart here.
# Key:
# [1] = system: glioma stem cell line U3013; assay: In vitro cancer cell and CSC viability assay (ATP quantification, CellTiterGlo); format: cell-based, human; details: for EC50: Homo sapiens, read-out: In vitro efficacy (viability) EC50; for potency with respect to S10 (viability): individual isomers of racemic S10
# Protocol: The ability of Examples S1-S23 to selectively induce cytotoxicity in glioma/glioblastoma cancer cells or glioma/glioblastoma cancer stem cells was determined by quantification of ATP production in glioma stem cell line U3013 in the presence of using CellTiterGlo reagent (Promega). Cells were exposed to compound in serial dilution in the range 1 nM to 50 µM for 24 hours and viability assessed with respect to negative control (dmso, no cell death) and positive control (staurosporine, full cell death). […] The EC50 of S10 remained largely similar at 2, 3 and 4 days of incubation. […] The individual isomers (S21-S23) of racemic S10 were evaluated in order to determine the enantiospecific pharmacology of the individual isomers.
# Negative (100% DMSO) and positive (10 mM S10 in 100% DMSO) controls were placed in rows 1-4 and 5-8, respectively, of column 12. The wells were diluted with 190 μl of the corresponding growth media and 5 μl of each well of compound solution transferred to quadruplicate wells of a sterile 384-well black clear bottom plate (BD Falcon) containing GSC at 70% confluency in 45 μl growth media. The plate was incubated for 24 hours, after which the plate was removed from the incubator and each well imaged in bright-field using an Operetta Imaging system (PerkinElmer) at 37° C. and 5% CO2 to determine vacuole accumulation at each concentration. The plate was then allowed to cool to room temperature and each well treated with 25 μl freshly CellTiterGlo (Promega) reagent. The plate was shaken for 15 minutes and luminescence measured using a Victor3 (Perkin Elmer) microtiterplate reader. Total luminescence was normalized relative to control and curve fitting performed using GraphPad Prism (v6.02) software.
# [2] = Pharmacokinetic evaluation of Vacquinol-1 stereoisomers, plasma and brain; format: in vivo, NMRI (SR/RS) or BALB/c (Vrac) mice; details: for AUClast Plasma / Cmax Brain / tlast Brain / tlast Plasma / AUC(0-t): mice; for AUC(0-t): brain, read-out: AUClast Brain
# Protocol: The pharmacokinetics of Vacquinol-1 (racemic), Vacquinol-1RS and Vacquinol-1SR, were determined in NMRI (SR/RS) or BALB/c (Vrac) mice following single intravenous (i.v.) or per oral (p.o) administration of 2 or 20 mg/kg Vacquinol-1, respectively. Blood and brain samples were taken from animals at the following nominal time points: 15, 30, and 60 minutes, and 2, 4, 6, 8, 24, 48, 72 and 144 hours after dosing (n=3/time-point). Bioanalytical quantification of Vacquinol-1 was analysed in plasma and brain samples by a UPLC-MS/MS.
# Pharmacokinetics were calculated by non-compartmental analysis (NCA) from composite (mean) profiles. Nominal sampling times and dose levels have been used for the NCA calculations.
SMILES,"EC50 ([1]; U3013, 24 hours exposure)",also measured
"O[C@H](c1cc(-c2ccc(C(F)(F)F)nc2)nc2ccccc12)[C@H]1CCCCN1 (mixture of isomers) [Compound S29, mixture of (R)-((R)-piperidin-2-yl)(2-(6-(trifluoromethyl)pyridin-3-yl)quinolin-4-yl)methanol and (S)-((S)-piperidin-2-yl)(2-(6-(trifluoromethyl)pyridin-3-yl)quinolin-4-yl)methanol]",,"In vitro efficacy (viability) EC50 ([1]; U3013, 24 hours exposure): No activity"
"OC(c1cc(-c2ccccc2)nc2c1ccc1ccccc12)C1CCCCN1 (stereo not drawn) [Compound S1, (2-phenylbenzo[h]quinolin-4-yl)(piperidin-2-yl)methanol]",0.39 µM,
"OC(c1cc([C@]23CC4CC[C@H](C[C@H]4C2)C3)nc2c(Cl)cc(Cl)cc12)C1CCCCN1 (stereo partly drawn) [Compound S2, (6,8-dichloro-2-((2R,3aS,5R)-octahydro-1H-2,5-methanoinden-2-yl)quinolin-4-yl)(piperidin-2-yl)methanol]",0.41 µM,
"Cc1ccc2nc(Nc3ccc(Cl)cc3)cc(C(O)C3CCCCN3)c2c1 (stereo not drawn) [Compound S3, (2-((4-chlorophenyl)amino)-6-methylquinolin-4-yl)(piperidin-2-yl)methanol]",0.73 µM,
"OC(c1cc(-c2ccc(Cl)cc2)nc2c(Cl)cccc12)C1CCCCN1 (stereo not drawn) [Compound S4, (8-chloro-2-(4-chlorophenyl)quinolin-4-yl)(piperidin-2-yl)methanol]",1.03 µM,
"OC(c1cc(-c2ccccc2)nc2c(Cl)cc(Cl)cc12)C1CCCCN1 (stereo not drawn) [Compound S5, (6,8-dichloro-2-phenylquinolin-4-yl)(piperidin-2-yl)methanol]",1.1 µM,
"OC(c1cc(-c2cccc(Cl)c2)nc2ccccc12)C1CCCCN1 (stereo not drawn) [Compound S6, (2-(3-chlorophenyl)quinolin-4-yl)(piperidin-2-yl)methanol]",1.25 µM,
"OC(c1cc(-c2ccc(Cl)c(Cl)c2)nc2ccccc12)C1CCCCN1 (stereo not drawn) [Compound S7, (2-(3,4-dichlorophenyl)quinolin-4-yl)(piperidin-2-yl)methanol]",1.59 µM,
"C#Cc1ccc(-c2cc(C(O)C3CCCCN3)c3ccccc3n2)cc1 (stereo not drawn) [Compound S8, (2-(4-ethynylphenyl)quinolin-4-yl)(piperidin-2-yl)methanol]",1.69 µM,
"CN(Cc1ccc(-c2cc(C(O)C3CCCCN3)c3ccccc3n2)cc1)C(=O)OC(C)(C)C (stereo not drawn) [Compound S9, tert-butyl 4-(4-(hydroxy(piperidin-2-yl)methyl)quinolin-2-yl)benzyl(methyl)carbamate]",2.25 µM,
"OC(c1cc(-c2ccccc2)nc2cc(Cl)ccc12)C1CCCCN1 (stereo not drawn) [Compound S11, (7-chloro-2-phenylquinolin-4-yl)(piperidin-2-yl)methanol]",2.69 µM,
"OC(c1cc(-c2ccc(Cl)cc2Cl)nc2ccccc12)C1CCCCN1 (stereo not drawn) [Compound S12, (2-(2,4-dichlorophenyl)quinolin-4-yl)(piperidin-2-yl)methanol]",3.22 µM,
"OC(c1cc(-c2ccccc2)nc2ccc(Cl)cc12)C1CCCCN1 (stereo not drawn) [Compound S13, (6-chloro-2-phenylquinolin-4-yl)(piperidin-2-yl)methanol]",3.62 µM,
"COC(c1cc(-c2ccc(Cl)cc2)nc2ccccc12)C1CCCCN1 (stereo not drawn) [Compound S14, 2-(4-chlorophenyl)-4-(methoxy(piperidin-2-yl)methyl)quinoline]",5.62 µM,
"COc1ccc(-c2cc(C(O)C3CCCCN3)c3ccccc3n2)cc1 (stereo not drawn) [Compound S15, (2-(4-methoxyphenyl)quinolin-4-yl)(piperidin-2-yl)methanol]",7.59 µM,

# Now from value to molecule, other results behind:
"EC50 ([1]; U3013, 24 hours exposure)",SMILES,also measured
32.1 µM,"Cc1ccc(-c2cc([C@@H](O)[C@@H]3CCCCN3)c3ccccc3n2)cc1C#N (racemic) [Compound S24, mixture of 5-(4-((R)-hydroxy((S)-piperidin-2-yl)methyl)quinolin-2-yl)-2-methylbenzonitrile and 5-(4-((S)-hydroxy((R)-piperidin-2-yl)methyl)quinolin-2-yl)-2-methylbenzonitrile]",
35.4 µM,"CCCN(CCC)C(=O)c1ccc(-c2cc([C@@H](O)[C@@H]3CCCCN3)c3ccccc3n2)cc1 (racemic) [Compound S25, mixture of 4-(4-((R)-hydroxy((S)-piperidin-2-yl)methyl)quinolin-2-yl)-N,N-dipropylbenzamide and 4-(4-((S)-hydroxy((R)-piperidin-2-yl)methyl)quinolin-2-yl)-N,N-dipropylbenzamide]",
13.5 µM,"O[C@H](c1cc(-c2ccc(C(F)(F)F)cc2)nc2ccccc12)[C@@H]1CCCCN1 (racemic) [Compound S26, mixture of (R)-((S)-piperidin-2-yl)(2-(4-(trifluoromethyl)phenyl)quinolin-4-yl)methanol and (S)-((R)-piperidin-2-yl)(2-(4-(trifluoromethyl)phenyl)quinolin-4-yl)methanol]",
38 µM,"O[C@H](c1cc(-c2ccc(C(F)(F)F)nc2)nc2ccccc12)[C@@H]1CCCCN1 (racemic) [Compound S27, mixture of (R)-((S)-piperidin-2-yl)(2-(6-(trifluoromethyl)pyridin-3-yl)quinolin-4-yl)methanol and (S)-((R)-piperidin-2-yl)(2-(6-(trifluoromethyl)pyridin-3-yl)quinolin-4-yl)methanol]",
14.6 µM,"O[C@H](c1cc(-c2ccc(C(F)(F)F)cc2)nc2ccccc12)[C@H]1CCCCN1 (racemic) [Compound S28, mixture of (R)-((R)-piperidin-2-yl)(2-(4-(trifluoromethyl)phenyl)quinolin-4-yl)methanol and (S)-((S)-piperidin-2-yl)(2-(4-(trifluoromethyl)phenyl)quinolin-4-yl)methanol]",
8.72 µM,"OC(c1cc(-c2ccc(Cl)cc2)nc2ccccc12)C1CCCN1 (stereo not drawn) [Compound S16, (2-(4-chlorophenyl)quinolin-4-yl)(pyrrolidin-2-yl)methanol]",
9.6 µM,"OC(c1cc(C(F)(F)F)nc2c(Cl)cc(Cl)cc12)C1CCCCN1 (stereo not drawn) [Compound S17, (6,8-dichloro-2-(trifluoromethyl)quinolin-4-yl)(piperidin-2-yl)methanol]",
12.7 µM,"OC(c1cc(C2CCCCC2)nc2ccccc12)C1CCCCN1 (stereo not drawn) [Compound S18, (2-cyclohexylquinolin-4-yl)(piperidin-2-yl)methanol]",
19.3 µM,"CN1CCCCC1C(O)c1cc(-c2ccc(Cl)cc2)nc2ccccc12 (stereo not drawn) [Compound S19, (2-(4-chlorophenyl)quinolin-4-yl)(1-methylpiperidin-2-yl)methanol]",
1.72 µM,"O[C@H](c1cc(-c2ccc(Cl)cc2)nc2ccccc12)[C@@H]1CCCCN1 [Compound S20, (R)-(2-(4-chlorophenyl)quinolin-4-yl)((S)-piperidin-2-yl)methanol]","AUClast Plasma ([2]; 2 mg/kg i.v.): 62 µg·h/mL; Cmax Brain ([2]; 2 mg/kg i.v.): 1970 ng/mL; tlast Brain ([2]; 2 mg/kg i.v.): 144 h; tlast Plasma ([2]; 2 mg/kg i.v.): 144 h; AUClast Plasma ([2]; 20 mg/kg p.o.): 246 µg·h/mL; Cmax Brain ([2]; 20 mg/kg p.o.): 4840 ng/mL; tlast Brain ([2]; 20 mg/kg p.o.): 144 h; tlast Plasma ([2]; 20 mg/kg p.o.): 144 h; Kp ([2]; NMRI (single stereoisomers SR/RS), BALB/c (racemate), mouse, brain and plasma, 20 mg/kg, after oral dosing, read-out: Cmax exposures ratio (Cmax(brain)/Cmax(plasma))): 2.2; AUC(0-t) ([2]; NMRI (single stereoisomers SR/RS), BALB/c (racemate), mouse, iv, 2 mg/kg i.v.): 52.7 µg·h/mL; AUC(0-t) ([2]; NMRI (single stereoisomers SR/RS), BALB/c (racemate), mouse, po, 20 mg/kg p.o.): 400 µg·h/mL; IC95 for cell death ([1]; glioblastoma cells (U3013)): 8.9 µM; potency with respect to S10 (viability) [1]: equal or increased potency"
10.5 µM,"O[C@@H](c1cc(-c2ccc(Cl)cc2)nc2ccccc12)[C@@H]1CCCCN1 [Compound S22, (S)-(2-(4-chlorophenyl)quinolin-4-yl)((S)-piperidin-2-yl)methanol]",potency with respect to S10 (viability) [1]: significantly attenuated activity
9.95 µM,"O[C@H](c1cc(-c2ccc(Cl)cc2)nc2ccccc12)[C@H]1CCCCN1 [Compound S23, (R)-(2-(4-chlorophenyl)quinolin-4-yl)((R)-piperidin-2-yl)methanol]",potency with respect to S10 (viability) [1]: significantly attenuated activity
